Results: patent publication US12077503B2, “Substituted cyclic amides and their use as herbicides” (FMC CORPORATION, priority 2015, dated 2024)

Key:
Assay type in all cases: in vivo
[1] = system: ragweed (common ragweed, Ambrosia elatior); experiment: Test A postemergence; settings: postemergence
In short: (§1)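 Visual injury, scored on a 0–100 scale relative to untreated controls, was recorded about 10 d after application. Treatments were a preemergence soil spray over planted seeds or a postemergence spray on plants at the one- to two-leaf stage, 2 to 10 cm tall, all in loam soil–sand blend in the greenhouse.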

[2] = system: Galium (catchweed bedstraw, Galium aparine); experiment: Test A postemergence; settings: postemergence
In short: as §1

[3] = system: barnyardgrass (Echinochloa crus-galli); experiment: Test A postemergence
In short: as §1

[4] = system: blackgrass (Alopecurus myosuroides); experiment: Test A postemergence
In short: as §1

[5] = system: wheat (Triticum aestivum); experiment: Test A postemergence; settings: postemergence
In short: as §1

Kochia (Kochia scoparia) [6] = experiment: Test A postemergence; settings: postemergence
In short: as §1

[7] = system: ryegrass, Italian (Italian ryegrass, Lolium multiflorum); experiment: Test A postemergence; settings: postemergence
In short: as §1

[8] = system: giant foxtail (Setaria faberii); experiment: Test A postemergence; settings: postemergence
In short: as §1

[9] = system: pigweed (Amaranthus retroflexus); experiment: Test A postemergence; settings: postemergence
In short: as §1

corn (Zea mays) = experiment: Test A postemergence; settings: postemergence
In short: as §1

[10] = system: ragweed (common ragweed, Ambrosia elatior); experiment: Test A preemergence; settings: for Plant response rating, Ragweed: preemergence
In short: as §1

[11] = system: barnyardgrass (Echinochloa crus-galli); experiment: Test A preemergence; settings: for Plant response rating, Barnyardgrass: preemergence
In short: as §1

Kochia (Kochia scoparia) [12] = experiment: Test A preemergence; settings: for Plant response rating, Kochia: preemergence
In short: as §1

[13] = system: ryegrass, Italian (Italian ryegrass, Lolium multiflorum); experiment: Test A preemergence; settings: for Plant response rating, Ryegrass, Italian: preemergence
In short: as §1

[14] = system: giant foxtail (Setaria faberii); experiment: Test A preemergence; settings: for Plant response rating, Foxtail, Giant: preemergence
In short: as §1

[15] = system: pigweed (Amaranthus retroflexus); experiment: Test A preemergence; settings: for Plant response rating, Pigweed: preemergence
[16] = system: barnyardgrass (Echinochloa crus-galli); experiment: Test B flooded paddy test; settings: Flood, 500 g ai/ha; 0 to 100 scale where 0 is no effect and 100 is complete control; 13 to 15 d
In short: (§2)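 Response scored visually against untreated controls, 0 = no effect and 100 = complete control, 13–15 d after treatment in the greenhouse. Compounds added to paddy water held 3 cm above soil surface. Treatment given at 2-leaf stage.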

rice (Oryra sativa) = experiment: Test B flooded paddy test; settings: Flood, 500 g ai/ha; 0 to 100 scale where 0 is no effect and 100 is complete control; 13 to 15 d
In short: as §2

[17] = system: sedge, umbrella (small-flower umbrella sedge, Cyperus difformis); experiment: Test B flooded paddy test; settings: Flood, 500 g ai/ha; 0 to 100 scale where 0 is no effect and 100 is complete control; 13 to 15 d
In short: as §2

[18] = system: ducksalad (Heteranthera limosa); experiment: Test B flooded paddy test; settings: Flood, 500 g ai/ha; 0 to 100 scale where 0 is no effect and 100 is complete control; 13 to 15 d
In short: as §2

[19] = 125 g ai/ha, visual injury after approximately 10 d, 0 to 100 scale (0 no effect, 100 complete control)
[20] = 500 g ai/ha, visual injury, 0 to 100 scale (0 no effect, 100 complete control), approx. 10 d
[21] = 125 g ai/ha, postemergence, visual injury after approximately 10 d, 0 to 100 scale (0 no effect, 100 complete control)
[22] = 500 g ai/ha, postemergence, visual injury, 0 to 100 scale (0 no effect, 100 complete control), approx. 10 d
[23] = 125 g ai/ha, visual rating after approx. 10 d, 0 to 100 scale where 0 is no effect and 100 is complete control
[24] = 500 g ai/ha, 0 to 100 scale, 0 = no effect, 100 = complete control
[25] = 125 g ai/ha, visual injury rating on 0 to 100 scale (0 no effect, 100 complete control), approx. 10 d
[26] = 500 g ai/ha, 0 to 100 scale, 0 no effect, 100 complete control
[27] = 500 g ai/ha, postemergence, 0 to 100 scale, 0 no effect, 100 complete control
[28] = Postemergence, 125 g ai/ha, visual injury, 0 to 100 scale (0 no effect, 100 complete control), approx. 10 d
[29] = 125 g ai/ha, 0 to 100 scale (0 no effect, 100 complete control)
[30] = Preemergence, 500 g ai/ha, 0 is no effect, 100 is complete control

Structure (SMILES): CC(=O)c1ccccc1NC(=O)C1C(=O)NCC1c1cccc(C(F)(F)F)c1 (racemic) [Compound 706]
- Plant response rating, Ragweed [1, 19]: 0
- Plant response rating, Ragweed [1, 20]: 0
- Plant response rating, Galium [2, 19]: 0
- Plant response rating, Galium [2, 20]: 0
- Plant response rating, Barnyardgrass [3, 21]: 0
- Plant response rating, Barnyardgrass [3, 22]: 50
- Plant response rating, Blackgrass [4, 21]: 0
- Plant response rating, Blackgrass [4, 22]: 0
- Plant response rating, Wheat [5, 19]: 0
- Plant response rating, Wheat [5, 20]: 0
- Plant response rating, Kochia (Kochia (Kochia scoparia) [6]; [19]): 0
- Plant response rating, Kochia (Kochia (Kochia scoparia) [6]; [20]): 0
- Plant response rating, Ryegrass, Italian [7, 19]: 0
- Plant response rating, Ryegrass, Italian [7, 20]: 0
- Plant response rating, Foxtail, Giant [8, 19]: 0
- Plant response rating, Foxtail, Giant [8, 20]: 30
- Plant response rating, Pigweed [9, 19]: 0
- Plant response rating, Pigweed [9, 20]: 0
- Plant response rating, Corn (corn (Zea mays); [19]): 0
- Plant response rating, Corn (corn (Zea mays); [20]): 0
- Plant response rating, Ragweed [10, 23]: 0
- Plant response rating, Ragweed [10, 24]: 0
- Plant response rating, Barnyardgrass [11, 23]: 0
- Plant response rating, Barnyardgrass [11, 24]: 70
- Plant response rating, Kochia (Kochia (Kochia scoparia) [12]; [23]): 0
- Plant response rating, Kochia (Kochia (Kochia scoparia) [12]; [24]): 0
- Plant response rating, Ryegrass, Italian [13, 23]: 0
- Plant response rating, Ryegrass, Italian [13, 24]: 0
- Plant response rating, Foxtail, Giant [14, 23]: 0
- Plant response rating, Foxtail, Giant [14, 24]: 80
- Plant response rating, Pigweed [15, 23]: 0
- Plant response rating, Pigweed [15, 24]: 0
- Plant response rating, Barnyardgrass [16]: 0
- Plant response rating, Rice (rice (Oryra sativa)): 15
- Plant response rating, Sedge, Umbrella [17]: 0
- Plant response rating, Ducksalad [18]: 0

Structure (SMILES): O=C1NCC(c2cccc(OCC(F)F)c2)C1C(=O)Nc1ccc(F)cc1F (stereo not drawn) [Compound 388]
- Ragweed plant response rating [1, 25]: 0
- Plant response rating, Ragweed [1, 26]: 0
- Galium plant response rating [2, 25]: 0
- Plant response rating, Galium [2, 26]: 30
- Plant response rating, Barnyardgrass [3, 27]: 70
- Plant response rating, Barnyardgrass [3, 28]: 30
- Plant response rating, Blackgrass [4, 27]: 50
- Plant response rating, Blackgrass [4, 28]: 10
- Wheat plant response rating [5, 25]: 0
- Plant response rating, Wheat [5, 26]: 0
- Kochia plant response rating (Kochia (Kochia scoparia) [6]; [25]): 0
- Plant response rating, Kochia (Kochia (Kochia scoparia) [6]; [26]): 0
- Ryegrass, Italian plant response rating [7, 25]: 0
- Plant response rating, Ryegrass, Italian [7, 26]: 0
- Foxtail, Giant plant response rating [8, 25]: 50
- Plant response rating, Foxtail, Giant [8, 26]: 80
- Pigweed plant response rating [9, 25]: 0
- Plant response rating, Pigweed [9, 26]: 0
- Corn plant response rating (corn (Zea mays); [25]): 0
- Plant response rating, Corn (corn (Zea mays); [26]): 0
- Plant response rating, Ragweed [10, 29]: 0
- Ragweed plant response rating (0 to 100 scale) [10, 30]: 0
- Plant response rating, Barnyardgrass [11, 29]: 60
- Barnyardgrass plant response rating (0 to 100 scale) [11, 30]: 80
- Plant response rating, Kochia (Kochia (Kochia scoparia) [12]; [29]): 0
- Kochia plant response rating (0 to 100 scale) (Kochia (Kochia scoparia) [12]; [30]): 0
- Plant response rating, Ryegrass, Italian [13, 29]: 0
- Ryegrass, Italian plant response rating (0 to 100 scale) [13, 30]: 0
- Plant response rating, Foxtail, Giant [14, 29]: 80
- Foxtail, Giant plant response rating (0 to 100 scale) [14, 30]: 90
- Plant response rating, Pigweed [15, 29]: 0
- Pigweed plant response rating (0 to 100 scale) [15, 30]: 0
- Plant response rating, Barnyardgrass [16]: 0
- Plant response rating, Rice (rice (Oryra sativa)): 0
- Plant response rating, Sedge, Umbrella [17]: 0
- Plant response rating, Ducksalad [18]: 75
